From US20230398130A1, “METHODS AND COMPOSITIONS FOR DIFFERENTIATING STEM CELLS” (Massachusetts Institute of Technology, priority 2020, published 2023)

Columns and labels:
[1] = test system: ISC-enriched organoids; assay: Primary screen, 384-well 2.5-D organoid differentiation (ENR+CD, 6 days): basal lysozyme secretion (LYZ.NS); assay type: cell-based, murine; conditions: for Dose.FC.LYZ.NS (log 2 fold change, basal lysozyme secretion): vs plate median
From the text: (§1) High-throughput screening.

[2] = test system: ISC-enriched organoids; assay: Primary screen, 384-well 2.5-D organoid differentiation (ENR+CD, 6 days, Target Selective Inhibitor Library, vs whole-plate median): ATP (CellTiter-Glo 3D, CTG); conditions: for Dose.FC.CTG (log 2 fold change, ATP): vs plate median
[3] = test system: ISC-enriched organoids; assay: Primary screen, 384-well 2.5-D organoid differentiation (ENR+CD, 6 days): carbachol-induced lysozyme secretion (LYZ.S); assay type: cell-based, murine; conditions: vs plate median
From the text: as §1

| Compound | Z.LYZ.NS (standard z score) ([1]; dose 0.08 uM) | Dose.FC.LYZ.NS (log 2 fold change, basal lysozyme secretion) ([1]; dose 0.08 uM) | Z.LYZ.NS (standard z score) ([1]; dose 0.40 uM) | Dose.FC.LYZ.NS (log 2 fold change, basal lysozyme secretion) ([1]; dose 0.40 uM) | Z.LYZ.NS (standard z score) ([1]; dose 2.00 uM) | Dose.FC.LYZ.NS (log 2 fold change, basal lysozyme secretion) ([1]; dose 2.00 uM) | Z.LYZ.NS (standard z score) ([1]; dose 10.00 uM) | Dose.FC.LYZ.NS (log 2 fold change, basal lysozyme secretion) ([1]; dose 10.00 uM) | Z.CTG (standard z score) ([2]; dose 0.08 uM) | Dose.FC.CTG (log 2 fold change, ATP) ([2]; dose 0.08 uM) | Z.CTG (standard z score) ([2]; dose 0.40 uM) | Dose.FC.CTG (log 2 fold change, ATP) ([2]; dose 0.40 uM) | Z.CTG (standard z score) ([2]; dose 2.00 uM) | Dose.FC.CTG (log 2 fold change, ATP) ([2]; dose 2.00 uM) | Z.CTG (standard z score) ([2]; dose 10.00 uM) | Dose.FC.CTG (log 2 fold change, ATP) ([2]; dose 10.00 uM) | Dose.FC.LYZ.S (log 2 fold change, carbachol-induced lysozyme secretion) ([3]; dose 0.08 uM) | Dose.FC.LYZ.S (log 2 fold change, carbachol-induced lysozyme secretion) ([3]; dose 0.40 uM) | Dose.FC.LYZ.S (log 2 fold change, carbachol-induced lysozyme secretion) ([3]; dose 2.00 uM) | Dose.FC.LYZ.S (log 2 fold change, carbachol-induced lysozyme secretion) ([3]; dose 10.00 uM) |
| --- | --- | --- | --- | --- | --- | --- | --- | --- | --- | --- | --- | --- | --- | --- | --- | --- | --- | --- | --- | --- |
| O=C(c1cncc(Br)c1)N1CCC(N2CCCC2)CC1 [UNC669] | 0.578 | 0.066 | −0.048 | −0.006 | 0.606 | 0.070 | 0.249 | 0.029 | −0.226 | −0.095 | 0.228 | 0.096 | −0.561 | −0.235 | 0.174 | 0.073 | 0.047 | −0.029 | 0.025 | 0.002 |
| CCCCNc1ncc(-c2ccc(CN3CCOCC3)cn2)c(NC2CCC(O)CC2)n1 (stereo not drawn) [UNC2250] | 1.005 | 0.115 | 0.587 | 0.067 | 0.744 | 0.085 | −1.336 | −0.153 | 0.633 | 0.265 | 0.667 | 0.279 | 0.250 | 0.105 | −0.153 | −0.064 | 0.142 | 0.113 | 0.134 | −0.205 |
| CS(=O)(=O)c1ccc(-c2cnc(N)c(C(=O)Nc3ccccc3)n2)cc1 [VE-821] | 0.924 | 0.106 | 0.544 | 0.063 | 0.901 | 0.103 | −2.475 | −0.284 | 0.508 | 0.213 | 0.311 | 0.130 | −0.328 | −0.137 | −2.006 | −0.840 | 0.130 | 0.089 | −0.004 | −0.429 |
| Cc1cc(Nc2cc(N3CCN(C)CC3)nc(Sc3ccc(NC(=O)C4CC4)cc3)n2)n[nH]1 [VX-680 (Tozasertib, MK-0457)] | −0.371 | −0.043 | −1.317 | −0.151 | −1.450 | −0.166 | −2.069 | −0.238 | −0.359 | −0.150 | −1.425 | −0.596 | −1.686 | −0.706 | −2.291 | −0.959 | −0.078 | −0.245 | −0.308 | −0.342 |
| Cc1ccc(NC(=O)C2(c3ccc4c(c3)OC(F)(F)O4)CC2)nc1-c1cccc(C(=O)O)c1 [VX-809 (Lumacaftor)] | 0.634 | 0.073 | −0.353 | −0.041 | −0.279 | −0.032 | −0.713 | −0.082 | 0.423 | 0.177 | −0.149 | −0.062 | −0.346 | −0.145 | 0.076 | 0.032 | 0.218 | −0.027 | −0.073 | −0.117 |
| COc1cc2/c(=N/c3ccc(Br)cc3F)nc[nH]c2cc1OCC1CCN(C)CC1 [Vandetanib (ZD6474)] | −0.594 | −0.068 | −0.792 | −0.091 | −2.356 | −0.271 | −2.594 | −0.298 | −1.547 | −0.648 | −0.874 | −0.366 | −2.089 | −0.874 | −2.880 | −1.206 | −0.139 | −0.054 | −0.384 | −0.494 |
| C[C@]1(c2nc3c(C(N)=O)cccc3[nH]2)CCCN1 [Veliparib (ABT-888)] | 0.649 | 0.075 | 1.211 | 0.139 | 0.203 | 0.023 | −0.537 | −0.062 | 0.307 | 0.128 | 0.132 | 0.055 | −0.057 | −0.024 | −0.521 | −0.218 | 0.105 | 0.179 | −0.016 | −0.136 |
| CCCS(=O)(=O)Nc1ccc(F)c(C(=O)c2c[nH]c3ncc(-c4ccc(Cl)cc4)cc23)c1F [Vemurafenib (PLX4032, RG7204)] | 0.786 | 0.090 | 0.462 | 0.053 | 0.411 | 0.047 | 0.263 | 0.030 | 0.297 | 0.124 | −0.195 | −0.082 | −0.014 | −0.006 | 0.073 | 0.030 | 0.120 | 0.150 | 0.055 | 0.022 |
| N#C[C@@H]1CCCN1C(=O)CNC12CC3CC(CC(O)(C3)C1)C2 [Vildagliptin (LAF-237)] | 1.285 | 0.148 | 2.004 | 0.230 | 1.478 | 0.170 | 0.846 | 0.097 | 0.553 | 0.232 | 0.547 | 0.229 | 0.358 | 0.150 | 0.811 | 0.339 | 0.099 | 0.113 | 0.038 | 0.013 |
